# ± gives the standard deviation of the averaged measurements.
# Assays:
# Assay in all cases: level (log10 ratio to DMSO vehicle control); higher = higher biomarker level / cell amount than vehicle control
# [1] = compound: C=CC(=O)OCC(F)(F)C(F)(F)C(F)(F)C(F)(F)C(F)(F)C(F)(F)C(F)(F)F [1H,1H-Perfluorooctyl acrylate]; settings: in DMSO
# Method: (§1)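 BioMAP Diversity Plus panel of 12 human primary cell co-culture systems (3C, 4H, LPS, SAg, BT, BF4T, BE3C, CASM3C, HDF3CGF, KF3CT, MyoF, Mphg). Compounds were added 1 h before stimulation and left for 24 h (MyoF 48 h; BT 72 h for soluble read-outs or 6 d for IgG). Biomarkers were read by ELISA, cytotoxicity by SRB, PBMC viability and proliferation by Alamar Blue. Each well value was divided by the mean of 8 DMSO control wells on the same plate and log10 transformed; duplicate blinded samples were tested at 4 concentrations.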
# [2] = compound: FC(F)(F)C(F)(F)C(F)(F)C(F)(F)C(F)(F)CCI [1-Iodo-1H,1H,2H,2H-perfluoroheptane]; settings: in DMSO
# Method: as §1
# [3] = compound: NC(=O)C(F)(F)C(F)(F)F [Pentafluoropropionamide]; settings: in DMSO
# Method: as §1
# [4] = compound: O=C(O)C(F)(F)C(F)(F)C(F)(F)C(F)(F)C(F)(F)C(F)(F)C(F)(F)C(F)F [9-H-Perfluorononanoic acid]; settings: in DMSO
# Method: as §1
# [5] = compound: O=S(=O)(O)C(F)(F)C(F)(F)C(F)(F)C(F)(F)C(F)(F)C(F)(F)F [Perfluorohexanesulfonic acid]; settings: in DMSO
# Method: as §1
# [6] = compound: OCCC(F)(F)C(F)(F)C(F)(F)C(F)(F)C(F)(F)C(F)(F)F [6:2 Fluorotelomer alcohol]; settings: in DMSO
# Method: as §1
# [7] = compound: OCCCC(F)(F)C(F)(F)C(F)(F)C(F)(F)C(F)(F)C(F)(F)C(F)(F)F [7:3 Fluorotelomer alcohol]; settings: 6700 nM; in DMSO
# Method: as §1
Test System,level (log10) ([1]; 6700 nM),level (log10) ([1]; 20000 nM),level (log10) ([1]; 60000 nM),level (log10) ([2]; 6700 nM),level (log10) ([2]; 20000 nM),level (log10) ([2]; 60000 nM),level (log10) ([3]; 6700 nM),level (log10) ([3]; 20000 nM),level (log10) ([3]; 60000 nM),level (log10) ([4]; 6700 nM),level (log10) ([4]; 20000 nM),level (log10) ([4]; 60000 nM),level (log10) ([5]; 6700 nM),level (log10) ([5]; 20000 nM),level (log10) ([5]; 60000 nM),level (log10) ([6]; 6700 nM),level (log10) ([6]; 20000 nM),level (log10) [7]
BE3C:CXCL9/MIG,-0.002 ± 0.0085,0.0035 ± 0.016,0.0015 ± 0.0078,-0.001 ± 0.0014,-0.008 ± 0.0042,-0.008 ± 0.013,0.004 ± 0.0028,-0.0015 ± 0.011,0.0075 ± 0.0035,-0.0255 ± 0.005,-0.0285 ± 0.005,-0.02 ± 0.0099,0.0035 ± 0.0092,-0.001 ± 0.0028,-0.007 ± 0.0028,0.01 ± 0.0057,0.001 ± 0.0057,-0.0015 ± 0.0021
BE3C:CXCL10/IP-10,0.0315 ± 0.015,0.0195 ± 0.005,0.0235 ± 0.023,0.018 ± 0.052,0.022 ± 0.033,0.004 ± 0.052,-0.008 ± 0.0085,0 ± 0.0028,-0.0015 ± 0.0064,-0.021 ± 0.0057,-0.04 ± 0.0042,-0.149 ± 0.04,-0.0035 ± 0.00071,-0.01 ± 0.0071,-0.0405 ± 0.016,-0.0035 ± 0.005,0.006 ± 0.0028,0.011 ± 0.024
BE3C:CXCL11/I-TAC,0.0115 ± 0.00071,0.016 ± 0.0099,0.009 ± 0.0014,0.0075 ± 0.013,0.0005 ± 0.016,0.0005 ± 0.018,-0.0065 ± 0.0092,-0.0055 ± 0.018,-0.006 ± 0.0071,-0.01 ± 0.0085,-0.009 ± 0.0085,-0.036 ± 0.021,-0.004 ± 0.016,0.004 ± 0.011,0.0035 ± 0.016,-0.017 ± 0.0028,-0.022 ± 0.0057,0.022 ± 0.017
BE3C:EGFR,0.016 ± 0.0071,0.01 ± 0.025,0.02 ± 0.011,0.0195 ± 0.0078,0.0085 ± 0.019,0.009 ± 0.028,-0.019 ± 0.016,-0.0095 ± 0.015,-0.0235 ± 0.04,-0.028 ± 0.0099,-0.022 ± 0.021,-0.0425 ± 0.023,-0.005,-0.0085 ± 0.0078,0.001 ± 0.0028,0.004 ± 0.051,-0.0025 ± 0.049,0.0115 ± 0.015
BE3C:HLA-DR,-0.0055 ± 0.005,-0.0025 ± 0.005,0.0055 ± 0.012,-0.0055 ± 0.0035,-0.0105 ± 0.0035,-0.0215 ± 0.0078,-0.0115 ± 0.0078,0.0045 ± 0.0064,0.0055 ± 0.026,-0.102 ± 0.042,-0.14 ± 0.052,-0.15 ± 0.0014,-0.014 ± 0.031,-0.0285 ± 0.013,-0.0585 ± 0.028,0.003,0.005 ± 0.02,0.0045 ± 0.029
BE3C:IL-1alpha,-0.006 ± 0.018,-0.0095 ± 0.0035,-0.0105 ± 0.019,-0.0085 ± 0.016,-0.005 ± 0.013,-0.012 ± 0.0085,0.0095 ± 0.022,0.003 ± 0.014,0.0295 ± 0.0035,0.032 ± 0.0028,0.014 ± 0.028,0.026 ± 0.0028,0.0145 ± 0.042,0.02 ± 0.018,0.0545 ± 0.0021,0.019 ± 0.016,0.008 ± 0.0057,-0.002 ± 0.014
BF4T:CCL2/MCP-1,-0.0145 ± 0.0021,-0.0405 ± 0.0078,-0.027 ± 0.0014,-0.008 ± 0.025,-0.044 ± 0.044,-0.055 ± 0.02,-0.0075 ± 0.0035,-0.0195 ± 0.00071,0.001 ± 0.025,-0.164 ± 0.011,-0.19 ± 0.0057,-0.122 ± 0.036,0.028 ± 0.045,-0.0075 ± 0.013,-0.042 ± 0.037,0.024 ± 0.033,0.02 ± 0.014,-0.0115 ± 0.019
BF4T:CCL26/Eotaxin-3,-0.008 ± 0.016,-0.019 ± 0.03,-0.036 ± 0.031,-0.0135 ± 0.012,-0.0315 ± 0.0092,-0.17 ± 0.021,-0.009 ± 0.017,-0.0155 ± 0.023,-0.0135 ± 0.011,-0.174 ± 0.028,-0.198 ± 0.049,-0.147 ± 0.0071,0.003 ± 0.0099,-0.001 ± 0.02,-0.0165 ± 0.037,-0.0055 ± 0.15,-0.023 ± 0.081,-0.088 ± 0.17
BF4T:CD54/ICAM-1,-0.0105 ± 0.005,-0.0165 ± 0.0035,-0.0295 ± 0.0092,-0.003 ± 0.0014,-0.0215 ± 0.019,-0.015 ± 0.0099,-0.021 ± 0.018,-0.007 ± 0.014,-0.019 ± 0.017,-0.0775 ± 0.0092,-0.088 ± 0.0028,-0.0795 ± 0.00071,0.0045 ± 0.00071,-0.005 ± 0.011,-0.022 ± 0.0099,-0.004 ± 0.0014,-0.0025 ± 0.011,-0.0065 ± 0.022
BF4T:CD90,-0.013 ± 0.014,-0.003 ± 0.0028,-0.004 ± 0.031,0.0025 ± 0.00071,-0.001 ± 0.0028,0.013 ± 0.0028,-0.0025 ± 0.0064,0.0005 ± 0.0064,-0.0045 ± 0.015,-0.0705 ± 0.021,-0.0605 ± 0.013,-0.0685 ± 0.015,-0.001 ± 0.014,-0.0115 ± 0.0078,-0.0305 ± 0.0064,-0.0035 ± 0.0021,-0.0165 ± 0.011,-0.004 ± 0.0028
BF4T:CD106/VCAM-1,-0.0105 ± 0.0021,-0.04 ± 0.0014,-0.049 ± 0.011,-0.029 ± 0.0071,-0.0615 ± 0.0064,-0.11 ± 0.012,-0.001 ± 0.018,-0.0045 ± 0.0021,-0.016 ± 0.0071,-0.0885 ± 0.049,-0.103 ± 0.058,-0.0625 ± 0.021,-0.022 ± 0.024,-0.019 ± 0.0014,-0.0155 ± 0.033,-0.0195 ± 0.042,-0.0525 ± 0.028,-0.0255 ± 0.0021
BF4T:CXCL8/IL-8,0.0275 ± 0.0092,0.01 ± 0.0057,0.0465 ± 0.0092,0.0065 ± 0.016,0.0295 ± 0.018,0.0605 ± 0.011,0.019 ± 0.028,0.0175 ± 0.022,0.02 ± 0.02,0.0365 ± 0.021,0.038 ± 0.023,0.0565 ± 0.016,0.002 ± 0.0085,0.0075 ± 0.0078,0.0255 ± 0.018,0.0185 ± 0.015,0.0005 ± 0.005,0.0165 ± 0.029
BF4T:IL-1alpha,-0.0075 ± 0.00071,0.0045 ± 0.0021,-0.0125 ± 0.013,0.0015 ± 0.022,-0.001 ± 0.011,0.0065 ± 0.0092,-0.0165 ± 0.0021,-0.016 ± 0.021,0.0065 ± 0.021,0.0005 ± 0.00071,-0.019 ± 0.0099,0.0055 ± 0.044,-0.0055 ± 0.005,-0.025 ± 0.0042,0.0095 ± 0.00071,-0.002 ± 0.0014,-0.0125 ± 0.021,-0.0045 ± 0.012
BF4T:Keratin 8/18,0.02 ± 0.0014,0.0005 ± 0.035,-0.0035 ± 0.053,0.0135 ± 0.022,-0.0085 ± 0.005,-0.015 ± 0.0028,0.0075 ± 0.043,0.0395 ± 0.05,0.0075 ± 0.032,-0.007 ± 0.052,0.0065 ± 0.044,0.0005 ± 0.0035,0.007 ± 0.011,0.0075 ± 0.0064,0.026 ± 0.02,0.0035 ± 0.0035,0.005 ± 0.0042,0.0045 ± 0.0035
BF4T:MMP-1,0.009 ± 0.021,0.0065 ± 0.0092,0.006 ± 0.0042,-0.001 ± 0.0057,-0.0015 ± 0.00071,0.008 ± 0.013,-0.005 ± 0.0099,-0.0105 ± 0.0078,0.012 ± 0.016,0.005 ± 0.021,-0.0075 ± 0.039,0.0925 ± 0.00071,0.0035 ± 0.0021,-0.0025 ± 0.023,0.0255 ± 0.0035,0.0065 ± 0.005,0.014 ± 0.021,0.0005 ± 0.018
BF4T:MMP-3,-0.004 ± 0.0014,0.0205 ± 0.019,0.036 ± 0.0071,-0.006 ± 0.034,-0.0015 ± 0.0078,0.0545 ± 0.021,-0.024 ± 0.011,-0.007,-0.003 ± 0.033,-0.0115 ± 0.03,-0.0025 ± 0.00071,0.075 ± 0.0071,0.021 ± 0.042,0.0195 ± 0.035,0.0605 ± 0.053,-0.004 ± 0.0042,-0.0055 ± 0.0035,-0.013 ± 0.014

# — the supplement of paper PMC10331698
